Data from patent US9486536B2 (Immunomedics, Inc., priority 2013, dated 2016).

Assays:
[1] = test system: Trop-2-positive human pancreatic adenocarcinoma cell line (BxPC-3); experiment: ADCC with PBMCs, effector to target ratio 100:1; type: cell-based; settings: 33.3 nM
Procedure: The ADCC activity of various hRS7-ADC conjugates was determined in comparison to hRS7 IgG (FIG. 17). PBMCs were purified from blood purchased from the Blood Center of New Jersey. A Trop-2-positive human pancreatic adenocarcinoma cell line (BxPC-3) was used as the target cell line with an effector to target ratio of 100:1. ADCC mediated by hRS7 IgG was compared to hRS7-Pro-2-PDox, hRS7-CL2A-SN-38, and the reduced and capped hRS7-NEM. All were used at 33.3 nM.

[2] = test system: HIV-1IIIB/MuLV infected splenocytes; experiment: HIV-1/MuLV infected cell challenge in mice; type: in vivo; settings: doses of 100-200 μg
Procedure: P4/D10-P2PDox is tested in vitro for its efficacy in eliminating HIV-1-infected cells among non-infected cells and in a mouse model by removing HIV-1/MuLV (murine leukemia virus) infected syngeneic cells from the intraperitoneal cavity.
A human T-cell line, CEM-1B, with a genetically integrated MuLV genome is infected with HIV-1IIIB, which leads to the production of pseudoviruses with the HIV-1 genome and the MuLV envelope (Adang et al., PNAS USA 1999, 96:12749-753; Hinkula et al., Cells Tissues Organs 2004, 177:169-184). These virus supernatants are used to infect splenocytes from C57B1/6×DBA F1 K^b/d mice transgenic for HLA-A201. Isogenic mice are challenged with HIV-1IIIB/MuLV infected splenocytes i.p. and are immediately given conjugated antibodies or free antibodies i.p. Ten days after challenge, mice are sacrificed and peritoneal cells collected. Peritoneal cells are pelleted and added to 1×10^6 HIV susceptible Jurkat T-cells or human PBMC grown in 24-well plates. From these secondary cultures, supernatant is removed and fresh medium added every 3-4 days. The amount of infectious HIV recovered in the supernatant is measured for 3 weeks by p24 ELISA.
To test the efficacy of P4/D10-P2PDox in vivo, mice are given isogeneic HIV/MuLV-infected cells together with conjugates intraperitoneally.

[3] = test system: NCI-N87 gastric carcinoma cells; experiment: cell binding, conjugate vs unconjugated antibody; set-up: species or system human; settings: 6 molecules of P2PDox per antibody (not shown)
[4] = test system: MDA-MB-468, AG S, NCI-N87 and Capan-1 solid tumor cell lines; experiment: cytotoxicity of P2PDox-mAb conjugates to target cells; type: cell-based, human; settings: not shown
From the text: The cytotoxicity of P2PDox-mAb conjugates to target cells was examined. hRS7-P2PDox and hMN-15-P2PDox were cytotoxic to MDA-MB-468, AG S, NCI-N87 and Capan-1 solid tumor cell lines (not shown). hMN-14-P2PDox was cytotoxic to Capan-1, BxPC-3 and AsPC-1 human pancreatic tumor lines and AGS, NCI-N87 and LS147T human gastric and colonic tumor lines (not shown). hLL2-P2PDOx was cytotoxic to Daudi, Raji, Ramos and JVM-3 hematopoietic tumor lines (not shown). IC50 values for the conjugates were in the nanomolar concentration range (not shown).

[5] = test system: BxPC3 human pancreatic carcinoma xenografts; experiment: therapy of BxPC3 xenografts in nude mice; type: in vivo

hRS7-P2PDox
specific lysis (ADCC) [1]: not significantly different | protection by control conjugates [2]: None of the P2PDox-conjugated control antibodies (hLL1 or hRS7) provide any protection | binding of the antibody moiety vs unconjugated hRS7 [3]: No significant difference in binding | cytotoxicity [4]: cytotoxic | inhibition of growth compared with hRS7-SN-38 ([5]; PxPC-3 pancreatic cancer (not shown)): substantially more effective | antitumor effects ([5]; second pancreatic cancer xenograft, 2.25 mg/kg protein dose twice weekly×2 weeks): specific and significant antitumor effects
